{
  "source": "patent US20210284691A1",
  "about": "“CBX8 CHROMDOMAIN INHIBITORS AND THE USES THEREOF” (Purdue Research Foundation, priority 2019, published 2021)",
  "format_in_all_cases": "cell-based",
  "key": {"[1]": {"system": "KLK3/TMPRSS2/AR/CBX2 expression", "assay": "Transcriptional fold change in LNCaP_NED cells", "conditions": "10 μM or 50 μM, 48 hours", "description": "(§1) FIG. 12A). Neuroendocrine differentiation (NED) of prostate cancer induced by androgen deprivation. Representative pictures of LNCaP cells treated with normal media or charcoal-stripped serum (CSS) media for 6 days to induce neuroendocrine differentiation (LNCaP_NED). FIG. 12B). Transcriptional fold changes of KLK3/TMPRSS2/ENO2/CHGA were quantified normalized to control gene YWHAZ upon CSS media treatment for 6 or 9 days. FIG. 12C). Western blotting of CBX paralogs in LNCaP and LNCaP_NED cells generated from 14-day CSS treatment. FIG. 12D). Cell proliferation of LNCaP_NED following 5 days incubation with 2 or 10 μM SW2_152F. DMSO was used as negative control. FIG. 12E). LNCaP_NED cells were treated with 10 μM SW2_152F for 24 h-96 h. Cell morphology pictures were captured starting from 24 h. Average cell size were plotted at 24 h or 48 h for both DMSO group and compound treated group. FIG. 12F). LNCaP_NED cells were treated with 10 μM or 50 μM SW2_152F for 48 hours. […] Binding of H3K27me3 and CBX2 at specific genomic sites (KLK3/TMPRSS2, e: enhancer, p: promoter) were evaluated using chromatin immunoprecipitation-qPCR. For all experiments in the figure, error bars represent SEM n=3 biological replicates, p-values were calculated using two-tailed Student's t-test, *=p<0.05, **=p<0.01, ***=p<0.001, ****=p<0.0001. […]"}, "LNCaP_NED cells": {"system": "LNCaP_NED cells", "assay": "LNCaP_NED cell proliferation, viability and morphology", "description": "FIG. 12A). Neuroendocrine differentiation (NED) of prostate cancer induced by androgen deprivation. Representative pictures of LNCaP cells treated with normal media or charcoal-stripped serum (CSS) media for 6 days to induce neuroendocrine differentiation (LNCaP_NED). FIG. 12B). Transcriptional fold changes of KLK3/TMPRSS2/ENO2/CHGA were quantified normalized to control gene YWHAZ upon CSS media treatment for 6 or 9 days. FIG. 12C). Western blotting of CBX paralogs in LNCaP and LNCaP_NED cells generated from 14-day CSS treatment. FIG. 12D). Cell proliferation of LNCaP_NED following 5 days incubation with 2 or 10 μM SW2_152F. DMSO was used as negative control. FIG. 12E). LNCaP_NED cells were treated with 10 μM SW2_152F for 24 h-96 h. Cell morphology pictures were captured starting from 24 h. Average cell size were plotted at 24 h or 48 h for both DMSO group and compound treated group. FIG. 12F). LNCaP_NED cells were treated with 10 μM or 50 μM SW2_152F for 48 hours. Transcriptional fold change of genes (KLK3/TMPRSS2/AR/CBX2) were normalized to YWHAZ in LNCaP_NED cells with SW2_152F treatment or DMSO. FIG. 12G). LNCaP cells were treated with DMSO. LNCaP_NED cells were treated with DMSO, 10 μM GSK343 or 10 μM SW2_152F for 48 hours. Whole cell lysates were extracted for western blotting. FIG. 12H). LNCaP_NED cells were treated with DMSO or 10 μM SW2_152F for 4 hours before harvest. Binding of H3K27me3 and CBX2 at specific genomic sites (KLK3/TMPRSS2, e: enhancer, p: promoter) were evaluated using chromatin immunoprecipitation-qPCR. For all experiments in the figure, error bars represent SEM n=3 biological replicates, p-values were calculated using two-tailed Student's t-test, *=p<0.05, **=p<0.01, ***=p<0.001, ****=p<0.0001.\nCellular Activity of CBX2 Inhibitor in Neuroendocrine Differentiation of Prostate Cancer—Generation of a Prostate Cancer Neuroendocrine Differentiation (NED) System. To generate an in vitro model for NED, we cultured the androgen-sensitive prostate cancer cell line LNCaP in charcoal-stripped serum (CSS), which lacks androgens as well as other steroids. Upon treatment with CSS media, LNCaP cells adopted morphological characteristics of neuroendocrine-like cells (LNCaP_NED), which include dominant nucleus, limited cytoplasm, dendrites (FIG. 12A) and a decreased proliferation rate. To monitor transcriptional changes during androgen deprivation, we quantified the changes in expression of two NED markers (ENO2 and CHGA) and two AR target genes (KLK3 and TMPRSS2) by RT-qPCR during 15 days of androgen deprivation. […] To verify that LNCaP_NED cells become resistant to AR antagonists, we tested the effects of the AR antagonist enzalutamide (ENZA) on cell proliferation."}, "[2]": {"system": "RWPE-1 cells, HEK293T cells", "assay": "Viability of non-transformed / control cells"}, "[3]": {"biological_target": "T1, CBX7 bulk chromatin binding (Homo sapiens, UniProt O95931)", "T1 construct": "endogenous in cells; host or cells: Hs68 fibroblasts (A17); HEK293T (A20)", "T1 sequence (O95931 whole entry)": "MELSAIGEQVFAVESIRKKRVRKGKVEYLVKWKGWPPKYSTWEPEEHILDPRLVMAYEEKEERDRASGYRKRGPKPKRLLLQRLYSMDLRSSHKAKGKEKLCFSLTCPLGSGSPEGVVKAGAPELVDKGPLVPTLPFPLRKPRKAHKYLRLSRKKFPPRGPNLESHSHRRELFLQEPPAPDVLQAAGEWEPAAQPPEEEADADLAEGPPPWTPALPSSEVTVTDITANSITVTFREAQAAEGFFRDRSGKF", "assay": "Sequential salt extraction (SSE) in HEK293T cells", "conditions": "10 μM"}, "[4]": {"biological_target": "T2, CBX2 and H3K27me3 at KLK3/TMPRSS2 enhancers and promoters (Homo sapiens, UniProt Q14781)", "T2 construct": "endogenous in cells", "T2 sequence (Q14781 whole entry)": "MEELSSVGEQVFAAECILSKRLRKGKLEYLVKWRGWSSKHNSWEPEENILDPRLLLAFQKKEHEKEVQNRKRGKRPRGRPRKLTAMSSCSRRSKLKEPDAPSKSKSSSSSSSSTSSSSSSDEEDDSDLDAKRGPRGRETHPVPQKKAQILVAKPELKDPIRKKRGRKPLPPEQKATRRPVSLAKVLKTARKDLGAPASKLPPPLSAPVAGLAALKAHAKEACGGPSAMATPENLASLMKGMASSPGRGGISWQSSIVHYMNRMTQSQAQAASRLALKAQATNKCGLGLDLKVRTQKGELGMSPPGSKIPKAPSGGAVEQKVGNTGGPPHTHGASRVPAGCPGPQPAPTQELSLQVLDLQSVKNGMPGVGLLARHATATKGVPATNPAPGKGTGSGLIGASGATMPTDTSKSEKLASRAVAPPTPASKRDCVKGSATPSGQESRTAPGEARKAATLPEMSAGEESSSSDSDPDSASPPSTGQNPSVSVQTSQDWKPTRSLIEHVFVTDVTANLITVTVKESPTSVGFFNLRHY", "assay": "ChIP-qPCR in LNCaP_NED cells", "conditions": "10 μM, 4 hours", "description": "as §1"}, "[5]": {"biological_target": "T3, CBX2 bulk chromatin binding (Homo sapiens, UniProt Q14781)", "T3 construct": "endogenous in cells; host or cells: HEK293T (A21); K562 (A22)", "T3 sequence (Q14781 whole entry)": "as above", "assay": "Sequential salt extraction (SSE) in HEK293T cells", "conditions": "10 μM"}},
  "note": "Square brackets hold non-standard residues; d marks the D form. Peptide text beside a SMILES is read from it. * marks the point of attachment. Tyr(3-Cl) = N[C@@H](Cc1ccc(O)c(Cl)c1)C(=O)O; Benzoyl(3,5-Cl2) = O=C(c1cc(Cl)cc(Cl)c1)*; Lys(Et2) = CCN(CC)CCCC[C@H](N)C(=O)O; Gly(cPent) = N[C@H](C(=O)O)C1CCCC1; NH(propargyl) = C#CCN*",
  "data": [
    {"compound": "C#CCNC(=O)[C@H](CO)NC(=O)[C@H](CCCCN(CC)CC)NC(=O)[C@@H](NC(=O)[C@@H](NC(=O)[C@H](Cc1ccc(O)c(Cl)c1)NC(=O)c1cc(Cl)cc(Cl)c1)C1CCCC1)[C@@H](C)CC", "note": "[SW2_152F] ({Benzoyl(3,5-Cl2)}-[Tyr(3-Cl)][Gly(cPent)]I[Lys(Et2)]S-{NH(propargyl)})", "values": [
      {"measurement": "CBX2 expression", "setting": "[1]", "value": "remained unchanged"},
      {"measurement": "expression of AR and AR-target genes (TMPRSS2 and KLK3)", "setting": "[1]", "value": "significantly increased"},
      {"measurement": "cell size and dendrites of LNCaP_NED cells", "setting": "LNCaP_NED cells; 10 μM, 24 h or 48 h", "value": "significantly decreased average cell size and reduced dendrites"},
      {"measurement": "LNCaP_NED cell proliferation", "setting": "LNCaP_NED cells; 2 or 10 μM, 5 days", "value": "significantly inhibited LNCaP_NED cell proliferation"},
      {"measurement": "LNCaP_NED cell viability, combination with ENZA", "setting": "LNCaP_NED cells; both compounds, 4 days, compared to either alone", "value": "significantly decreased"},
      {"measurement": "viability of RWPE-1 cells or HEK293T cells", "setting": "[2]", "value": "did not affect the viability"},
      {"measurement": "CBX7 binding to chromatin, SSE", "setting": "[3]", "value": "No effect"},
      {"measurement": "CBX2 binding at AR target genes, ChIP-qPCR", "setting": "[4]", "value": "abrogates CBX2 binding at the KLK3 (PSA)/TMPRSS2 enhancers and promoters"},
      {"measurement": "H3K27me3 enrichment at AR target genes, ChIP-qPCR", "setting": "[4]", "value": "reduces H3K27me3 enrichment specifically at these sites"},
      {"measurement": "CBX2 binding to chromatin, SSE", "setting": "[5]", "value": "dramatically abrogated CBX2 binding to chromatin"}
    ]}
  ]
}
